Data from patent US10385036B2, “Sulfonamide-substituted indole modulators of RORC2 and methods of use thereof” (Pfizer Inc., priority 2015, dated 2019).
Where two headings read alike, the source gives them in different places.

Key:
[1] = system: IL-17 production from human Th17 cells; assay: Assay of IL-17 production from human Th17 cells; format: cell-based; conditions: 144 h
Description: The activity of compound of the invention can be also be determined by an IL-17 production from human Th17 cells assay. In general, this assay measures blockade of IL-17 production, the signature cytokine of T helper 17 (Th17) cells, by compounds. Purified human CD4+ T cells are stimulated with anti-CD3+anti-CD28 and incubated with a cytokine cocktail that induce their differentiation into Th17 in the absence or presence of various concentrations of compound. After 6 days, IL-17A concentration is measured in the cell culture supernatant with an ELISA kit (MSD).
Preparation of human CD4+ T cells. CD4+ T cells were purified from buffy coats from healthy donors (obtained from Massachusetts General Hospital) by negative selection the following procedure: Mixing 25 mL of blood with 1 mL of Rosette Sep CD4+ T cell enrichment cocktail (StemCell Technologies) followed by application of a layer of 14 mL Ficoll Paque Plus (Amersham GE Healthcare) and subsequent centrifugation at 1200 g for 20 min at room temperature. The Ficoll layer was then harvested and washed with phosphate saline buffer containing 2% (v/v) fetal bovine serum and cells were resuspended with RPMI medium containing 10% (v/v) fetal bovine serum and 10% (v/v) DMSO, frozen and kept in LN2 until used.
[…] Serial dilutions of compounds of the invention are prepared at 10× final concentration in X-Vivo15 medium containing 3% (v/v) DMSO.
On the second day of the assay, a 384-well tissue culture plate was coated with 10 μg/mL anti-hCD3 (eBioscience) at 50 μL/well. After 2 hr at 37° C., the supernatant is discarded and the coated plates are kept in a sterile tissue culture hood.
The cytokine plus anti-CD28 cocktail with CD4+ cells is prepared such that the cocktail is diluted 10-fold and cell density is 0.22×10^6/mL. The mixture is incubated 1 hr at 37° C.
90 μL (20,000 cells) dispensed per well in the anti-hCD3 coated plate prepared as noted above.
10 μL 10× compound is added per well (final DMSO=0.3%) from the compound plate that was previously prepared, followed by 6 days of incubation in a tissue culture vessel in a humidified chamber at 37° C. and 5% CO2.
Measurement is carried out in a Sector Imager 6000 by the same manufacturer. Signal units from the instrument are converted to pg/mL using a calibration curve with known amounts of IL-17A. IC50 values of test compounds (Table 2) are determined by the non-linear regression analysis of dose response curves.

[2] = target: RORC2 ligand binding domain (6-His-RORC2 LBD) (Homo sapiens (Human), UniProt P51449); assay: Assay of co-activator recruitment by TR-FRET; format: biochemical; conditions: 6-His-RORC2 LBD / biotin-coactivator peptide SRC1-2 interaction, 3 hr room temperature
Chain of RORC2 ligand binding domain (6-His-RORC2 LBD) (P51449 269-508): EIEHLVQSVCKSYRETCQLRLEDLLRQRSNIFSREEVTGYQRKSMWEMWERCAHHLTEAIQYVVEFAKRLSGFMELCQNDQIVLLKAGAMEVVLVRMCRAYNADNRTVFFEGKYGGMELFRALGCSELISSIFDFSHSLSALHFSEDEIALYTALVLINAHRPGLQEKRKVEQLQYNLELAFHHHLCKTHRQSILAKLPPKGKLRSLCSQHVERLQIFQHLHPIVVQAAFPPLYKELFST
Description: The activity of compound of the invention can be determined by a co-activator recruitment by TR-FRET (time-resolved fluorescence resonance energy transfer) assay. […] When receptor and coactivator are bound to each other, upon shining light at 337 nm on the sample, the Europium emits fluorescence that excites APC due to close proximity (FRET) and this signal is measured at 665 nm. Due to the long lasting fluorescence emission of Europium, the non-specific, short-lived fluorescence is time-resolved (TR) from the fluorescence of interest. Inhibitors of the interaction of receptor and coactivator peptide are detected by a decrease in TR-FRET signal.
Specifically, in one embodiment the aforementioned assay was performed as outlined below. The assay was carried out in black polystyrene, 384-well plates in a total assay volume of 50.5 μL. The assay buffer contained 50 mM TRIS-HCL pH 7.5, 1 mM NaCl, 2 mM MgCl2, 0.5 mg/mL bovine serum albumin, and 5 mM dithiothreitol.

[3] = IL-17A in supernatant by ELISA (MSD) after 6 days, human CD4+ T cells differentiated into Th17, read-out: IC50

Compound | IC50 ([1]; Homo sapiens, CD4+ T) | IC50 [2] | IC50 [1, 3]
CC(C)C(=O)N1CCC(c2cn(C)c3ccc(NS(=O)(=O)c4ccc(F)c(O)c4)cc23)CC1 [Example 23, 4-fluoro-3-hydroxy-N-(3-(1-isobutyrylpiperidin-4-yl)-1-methyl-1H-indol-5-yl)benzenesulfonamide] | 1460 nM | – | –
CC(C)C(=O)N1CC[C@@H](c2cn(C)c3ccc(NS(=O)(=O)c4ccc(F)cc4)cc23)CC1(C)C (single isomer, unassigned) [Example 18] | – | 7 nM | 19 nM
Cn1cc(C2CCN(C(=O)C3CC3)CC2)c2cc(NS(=O)(=O)c3ccc(F)cc3)ccc21 [Example 8, N-(3-(1-(cyclopropanecarbonyl)piperidin-4-yl)-1-methyl-1H-indol-5-yl)-4-fluorobenzenesulfonamide] | – | 17.1 nM | 184 nM
Cc1cccc(F)c1C(=O)N1CCC(c2cn(C)c3ccc(NS(=O)(=O)c4ccc(F)cc4)cc23)CC1 [Example 15, 4-fluoro-N-(3-(1-(2-fluoro-6-methylbenzoyl)piperidin-4-yl)-1-methyl-1H-indol-5-yl)benzenesulfonamide] | – | 6.8 nM | 189 nM
Cc1noc(C)c1S(=O)(=O)Nc1ccc2c(c1)c(C1CCN(C(=O)[C@H](C)C(C)(C)C)CC1)cn2C [Example 30, (R)-3,5-dimethyl-N-(1-methyl-3-(1-(2,3,3-trimethylbutanoyl)piperidin-4-yl)-1H-indol-5-yl)isoxazole-4-sulfonamide] | – | 10 nM | 19.8 nM
C[C@@H](C(=O)N1CCC(c2cn(C)c3ccc(NS(=O)(=O)c4ccc(F)cc4)cc23)CC1)C1CCCC1 [Example 7, (R)-N-(3-(1-(2-cyclopentylpropanoyl)piperidin-4-yl)-1-methyl-1H-indol-5-yl)-4-fluorobenzenesulfonamide] | – | 4.5 nM | 28.1 nM
Cn1cc(C2CCN(C(=O)C3CCC3)CC2)c2cc(NS(=O)(=O)c3ccc(F)cc3)ccc21 [Example 11, N-(3-(1-(cyclobutanecarbonyl)piperidin-4-yl)-1-methyl-1H-indol-5-yl)-4-fluorobenzenesulfonamide] | – | 28.8 nM | 148 nM
C[C@H]1C[C@@H](c2cn(C)c3ccc(NS(=O)(=O)c4ccc(F)cc4)cc23)CCN1C(=O)C1CCCC1 [Example 20, N-(3-((2S,4S)-1-(cyclopentanecarbonyl)-2-methylpiperidin-4-yl)-1-methyl-1H-indol-5-yl)-4-fluorobenzenesulfonamide] | 633 nM | – | –
CC(CC(=O)N1CCC(c2cn(C)c3ccc(NS(=O)(=O)c4ccc(F)cc4)cc23)CC1)C(F)(F)F (stereo not drawn) [Example 9, 4-fluoro-N-(1-methyl-3-(1-(4,4,4-trifluoro-3-methylbutanoyl)piperidin-4-yl)-1H-indol-5-yl)benzenesulfonamide] | – | 14.8 nM | 99.1 nM
Cn1cc(C2CCN(C(=O)CC3CC3)CC2)c2cc(NS(=O)(=O)c3ccc(F)cc3)ccc21 [Example 13, N-(3-(1-(2-Cyclopropylacetyl)piperidin-4-yl)-1-methyl-1H-indol-5-yl)-4-fluorobenzenesulfonamide] | – | 16.9 nM | 310 nM
C[C@@H]1CN(C(=O)C2CCCC2)CC[C@@H]1c1cn(C)c2ccc(NS(=O)(=O)c3ccc(F)cc3)cc12 (single isomer, unassigned) [Example 4] | 137 nM | – | –
C[C@@H](C(=O)N1CCC(c2cn(C)c3ccc(NS(=O)(=O)c4ccccc4F)cc23)CC1)C(C)(C)C [Example 28, (R)-2-fluoro-N-(1-methyl-3-(1-(2,3,3-trimethylbutanoyl)piperidin-4-yl)-1H-indol-5-yl)benzenesulfonamide] | 11.4 nM | – | –
C[C@H]1C[C@H](c2cn(C)c3ccc(NS(=O)(=O)c4ccc(F)cc4)cc23)CCN1C(=O)C1CCCC1 [Example 21, N-(3-((2S,4R)-1-(cyclopentanecarbonyl)-2-methylpiperidin-4-yl)-1-methyl-1H-indol-5-yl)-4-fluorobenzenesulfonamide] | 88.7 nM | – | –
C[C@@H](C(=O)N1CC[C@@H](c2cn(C)c3ccc(NS(=O)(=O)c4ccc(F)cc4)cc23)[C@@H](C)C1)C1CCCC1 [Example 2, N-(3-((3R,4R)-1-((R)-2-cyclopentylpropanoyl)-3-methylpiperidin-4-yl)-1-methyl-1H-indol-5-yl)-4-fluorobenzenesulfonamide] | 4.8 nM | – | –
Cc1nn(C)c(C)c1S(=O)(=O)Nc1ccc2c(c1)c([C@@H]1CCN(C(=O)[C@H](C)C3CCCC3)C[C@@H]1C)cn2C (single isomer, unassigned) [Example 32] | – | 2.5 nM | 3.3 nM
CCOc1ccccc1S(=O)(=O)Nc1ccc2c(c1)c([C@@H]1CCN(C(=O)[C@H](C)C3CCCC3)C[C@@H]1C)cn2C (single isomer, unassigned) [Example 33] | – | 1.1 nM | 8.4 nM
C[C@H]1CN(C(=O)C2CCCC2)CC[C@H]1c1cn(C)c2ccc(NS(=O)(=O)c3ccc(F)cc3)cc12 (single isomer, unassigned) [Example 3] | 121 nM | – | –
Cn1cc([C@@H]2CCN(C(=O)C3CCCC3)C(C)(C)C2)c2cc(NS(=O)(=O)c3ccc(F)cc3)ccc21 (single isomer, unassigned) [Example 19] | – | 3.7 nM | 191 nM
CC(C)CC(=O)N1CCC(c2cn(C)c3ccc(NS(=O)(=O)c4ccc(F)cc4)cc23)CC1 [Example 12, 4-Fluoro-N-(1-methyl-3-(1-(3-methylbutanoyl)piperidin-4-yl)-1H-indol-5-yl)benzenesulfonamide] | – | 7.8 nM | 127 nM
Cc1ccc(S(=O)(=O)Nc2ccc3c(c2)c(C2CCN(C(=O)[C@H](C)C(C)(C)C)CC2)cn3C)cc1 [Example 25, (R)-4-methyl-N-(1-methyl-3-(1-(2,3,3-trimethylbutanoyl)piperidin-4-yl)-1H-indol-5-yl)benzenesulfonamide] | 10.6 nM | – | –
CCOc1ccccc1S(=O)(=O)Nc1ccc2c(c1)c(C1CCN(C(=O)[C@H](C)C(C)(C)C)CC1)cn2C [Example 27, (R)-2-ethoxy-N-(1-methyl-3-(1-(2,3,3-trimethylbutanoyl)piperidin-4-yl)-1H-indol-5-yl)benzenesulfonamide] | 16 nM | – | –
C[C@@H](C(=O)N1CC[C@@H](c2cn(C)c3ccc(NS(=O)(=O)c4ccccc4F)cc23)[C@@H](C)C1)C1CCCC1 (single isomer, unassigned) [Example 34] | 4.2 nM | – | –
C[C@@H](C(=O)N1CCC(c2cn(C)c3ccc(NS(=O)(=O)c4ccccc4)cc23)CC1)C(C)(C)C [Example 29, (R)-N-(1-methyl-3-(1-(2,3,3-trimethylbutanoyl)piperidin-4-yl)-1H-indol-5-yl)benzenesulfonamide] | 28.5 nM | – | –
CC(C)C(=O)N1CCC(c2cn(C)c3ccc(NS(=O)(=O)c4ccc(F)c(O[C@@H]5CCOC5)c4)cc23)CC1 [Example 24, (R)-4-fluoro-N-(3-(1-isobutyrylpiperidin-4-yl)-1-methyl-1H-indol-5-yl)-3-((tetrahydrofuran-3-yl)oxy)benzenesulfonamide] | 69.5 nM | – | –
C[C@@H](C(=O)N1CCC(c2cn(C)c3ccc(NS(=O)(=O)c4ccc(F)cc4)cc23)CC1)C(C)(C)C [Example 10, (R)-4-fiuoro-N-(1-methyl-3-(1-(2,3,3-trimethylbutanoyl)piperidin-4-yl)-1H-indol-5-yl)benzenesulfonamide] | 29 nM | – | –
Cn1cc(C2CCN(C(=O)C3CCCCC3)CC2)c2cc(NS(=O)(=O)c3ccc(F)cc3)ccc21 [Example 14, N-(3-(1-(cyclohexanecarbonyl)-piperidin-4-yl)-1-methyl-1H-indol-5-yl)-4-fluorobenzenesulfonamide] | 221 nM | – | –
Cc1ccc(F)c(S(=O)(=O)Nc2ccc3c(c2)c([C@@H]2CCN(C(=O)[C@H](C)C4CCCC4)C[C@@H]2C)cn3C)c1 (single isomer, unassigned) [Example 35] | 8.4 nM | – | –
